Source: US20200123142A1, “Substituted Cyclohexylamine Compounds” (EPIZYME, INC., priority 2018, published 2020)

Target: T1, SMYD3 (Homo sapiens, UniProt Q9H7B4)
T1 construct: Expressed full-length human His-tagged SMYD3 protein was purified from cell paste; His6 (cleaved yes); SUMO (with TEV site) (cleaved yes); made in house; host or cells: E. coli BL21 codonplus RIL
T1 sequence (Q9H7B4 1-428): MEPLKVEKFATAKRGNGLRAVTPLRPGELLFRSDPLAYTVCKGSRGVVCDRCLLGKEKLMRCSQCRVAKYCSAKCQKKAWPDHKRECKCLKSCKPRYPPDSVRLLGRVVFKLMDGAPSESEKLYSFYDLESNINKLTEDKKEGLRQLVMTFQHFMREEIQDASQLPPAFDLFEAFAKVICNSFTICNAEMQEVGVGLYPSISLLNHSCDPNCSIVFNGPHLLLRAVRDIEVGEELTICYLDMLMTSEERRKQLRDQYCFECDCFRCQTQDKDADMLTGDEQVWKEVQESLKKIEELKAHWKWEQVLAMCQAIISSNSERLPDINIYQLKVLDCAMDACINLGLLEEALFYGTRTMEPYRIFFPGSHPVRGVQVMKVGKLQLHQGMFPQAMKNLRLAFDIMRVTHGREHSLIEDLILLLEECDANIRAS
Test: SMYD3 Biochemical Assay (SMYD3 enzyme assay on MEKK2 protein substrate, 3H-SAM, scintillation proximity assay)
Conditions: read-out: SMYD3 Biochem IC50 (uM)*
Excerpt: S-adenosylmethionine (SAM), S-adenosylhomocysteine (SAH), Tris, Tween20, dimethylsulfoxide (DMSO), bovine skin gelatin (BSG), and Tris(2-carboxyethyl)phosphine hydrochloride solution (TCEP) were purchased from Sigma-Aldrich at the highest level of purity possible. ^3H-SAM was purchase from American Radiolabeled Chemicals with a specific activity of 80 Ci/mmol.
This protein was expressed in High Five insect cells and purified to >85% purity. Protein identity was confirmed by MS/MS analysis after proteolytic digestion. The protein sequence used was:
Full-length human SMYD3 isoform 1 (BAB86333) was inserted into a modified pET21b plasmid containing a His6 tag and TEV and SUMO cleavage sites.
Transformed cells were grown and selected on LB agar with 100 μg/mL ampicillin and 17 μg/mL chloramphenicol at 37° C. overnight. A single clone was used to inoculate 200 mL of LB medium with 100 μg/mL ampicillin and 17 μg/mL chloramphenicol and incubated at 37° C. on an orbital shaker at 180 rpm. […] Once OD600 reached about 0.4, IPTG was added to a final concentration of 0.1 mM and the cells were grown overnight at 15° C. and 160 rpm. Cells were harvested by centrifugation at 8000 rpm, for 4 minutes at 4° C. and stored at −80° C. for purification. […]

IC50: 0.883 µM
SMILES: NCCC(=O)N(CCN)[C@H]1CC[C@H](NC(=O)c2cc(C3CC3)on2)CC1 [compound 35, N-((1r,4r)-4-(3-amino-N-(2-aminoethyl)pro-panamido)cyclo-hexyl)-5-cyclo-propylisoxazole-3-carboxamide]
